Results taken from article PMC10305617, “Sesquiterpene Coumarin Ethers with Selective Cytotoxic Activities from the Roots of Ferula huber-morathii Peşmen (Apiaceae) and Unequivocal Determination of the Absolute Stereochemistry of Samarcandin” (Pharmaceuticals, 2023).

Key:
Type in all cases: cell-based, Human
[1] = system: K-562; assay: MTS cell viability (cytotoxic activity) assay, K-562; settings: for IC50: Homo sapiens, K562, K-562, MTS, 72 h, mean ± SD, at least three experiments
Text: (§1) Human colorectal cancer (COLO 205, CCL-222), breast cancer (MCF-7, HTB-22), chronic myelogenous leukemia (K-562, CCL-243), and umbilical vein/vascular endothelium (HUVEC, CRL-1730) cell lines were obtained from the American Type Culture Collection. The COLO 205, MCF-7, K-562, and HUVEC cell lines were maintained in Roswell Park Memorial Institute ([…], Wisent, Montreal, QC, CANADA), Eagle′s Minimum Essential Medium (EMEM, Wisent, Montreal, QC, CANADA), Iscove’s Modified Dulbecco’s Medium (IMDM, Wisent, Montreal, QC, CANADA), and Dulbecco′s Modified Eagle Medium (DMEM, Wisent, Montreal, QC, CANADA) supplemented with 10% fetal bovine serum (Capricorn, Ebsdorfergrund, Germany), 100 U/mL penicillin, and 100 µg/mL streptomycin (Wisent, Montreal, QC, CANADA), respectively. All of the cell lines were cultured at 37 °C in a humidified atmosphere containing 5% CO2.
(§2) A 3-[4,5-dimethylthiazol-2-yl]-5-[3-carboxymethoxyphenyl]-2-[4-sulfophenyl]-2H-tetrazolium, inner salt (MTS) cell viability assay was performed to evaluate the cytotoxic activities of the sesquiterpene coumarin ethers isolated from Ferula huber-morathii. HUVEC (1 × 10^4), COLO 205 (3 × 10^4), K-562 (3 × 10^4), and MCF7 (5 × 10^4) were plated in 96-well plates. Then, 24 h later, the tested compounds were dissolved in DMSO, and the cells were exposed to the different concentrations (131.58–1.028 µM) of the compounds for 72 h. Cisplatin and doxorubicin were used as a positive control. Next, an MTS/phenazine methosulfate (PMS) (Promega, Madison, WI, USA and Sigma, St. Louis, MO, USA respectively) mixture was added to each well and incubated for 1–4 h at 37 °C. The absorbance was read on a microplate reader (Biotek, Winooski, VT, USA) at 490 nm. The cytotoxic activities of the compounds were expressed as an IC50 value. The % inhibition of cell proliferation was calculated using the formula: % Inhibition = [1-(A490test/A490cont)] × 100, where A490test = absorbance of the test sample and A490cont = absorbance of the control sample [88]. The values of the 50% inhibition of the cell proliferation (IC50) were calculated by locating the x-axis values corresponding to one-half of the absorbance values of the sample.

[2] = system: COLO 205, K-562, MCF-7 and HUVEC cell lines; assay: MTS cytotoxicity, overall verbal grading over the cell line panel; settings: authors' verbal summary over COLO 205, K-562, MCF-7, HUVEC
Text: as §1, §2

[3] = system: MCF-7; assay: MTS cell viability (cytotoxic activity) assay, MCF-7; settings: for IC50: Homo sapiens, MCF7, MCF-7, MTS, 72 h, mean ± SD, at least three experiments; for cytotoxic effect in words, MCF-7: verbal summary
Text: as §1, §2

[4] = system: COLO 205; assay: MTS cell viability (cytotoxic activity) assay, COLO 205; settings: for IC50: Homo sapiens, COLO 205, MTS, 72 h, mean ± SD, at least three experiments
Text: as §1, §2

[5] = system: HUVEC; assay: MTS cell viability (cytotoxic activity) assay, non-cancerous HUVEC; settings: Homo sapiens, 72 h, mean ± SD, at least three experiments
Text: as §1, §2

With `C=C1CCC2C(C)(C)C(OC(C)=O)CCC2(C)C1COc1ccc2ccc(=O)oc2c1` (centres unmarked) [Farnesiferol A acetate (7), farnesiferol A acetate] the IC50 [1] was 52.7 ± 0.9 µM, the cytotoxicity in words [2] was “moderate or strong cytotoxicity” and the IC50 [3] was 27.4 ± 0.96 µM. For the same compound, the “cytotoxic effect in words, MCF-7” value [3] was “moderate cytotoxic activity”, the IC50 [4] was 66 ± 1.89 µM and the IC50 [5] was 64.5 ± 1.56 µM.

For `CC(=O)O[C@H]1CC[C@]2(C)[C@H](CC[C@@](C)(O)[C@@H]2COc2ccc3ccc(=O)oc3c2)C1(C)C` [Kellerin (12), kellerin], the IC50 [1] was 78.1 ± 3.13 µM, the IC50 [3] was 18.24 ± 0.12 µM and the “cytotoxic effect in words, MCF-7” value [3] was “moderate cytotoxic effect”. For the same compound, the IC50 [4] was 51.1 ± 1.57 µM and the IC50 [5] was 99.4 ± 1.63 µM.

`CC1(C)[C@H]2CC[C@@](C)(O)[C@H](COc3ccc4ccc(=O)oc4c3)[C@]2(C)CC[C@@H]1O` [Deacetylkellerin (11), deacetylkellerin] was tested, and the IC50 [1] was > 200 µM, the cytotoxicity in words [2] was “little or no cytotoxicity” and the IC50 [3] was 47.62 ± 0.4 µM. For the same compound, the IC50 [4] was > 200 µM and the IC50 [5] was > 200 µM.

With `CC(=O)O[C@@H]1CC[C@]2(C)[C@H](CC[C@@](C)(O)[C@@H]2COc2ccc3ccc(=O)oc3c2)C1(C)C` [Ferukrin acetate (10), ferukrin acetate] the IC50 [1] was 88.42 ± 0.85 µM, the cytotoxicity in words [2] was “little or no cytotoxicity” and the IC50 [3] was > 200 µM. For the same compound, the IC50 [4] was 106 ± 1.35 µM and the IC50 [5] was > 200 µM.

With `C=C1CC[C@@H]2C(C)(C)[C@H](O)CC[C@@]2(C)[C@H]1COc1ccc2ccc(=O)oc2c1` [Farnesiferol A (6), farnesiferol A] the IC50 [1] was > 200 µM, the IC50 [3] was > 200 µM and the IC50 [4] was > 200 µM. It also gave an IC50 [5] of 74.4 ± 1.19 µM.

In the case of `CC(=O)O[C@H]1CC[C@]2(C)[C@H](CC[C@](C)(O)[C@H]2COc2ccc3ccc(=O)oc3c2)C1(C)C` [Samarcandin acetate (15), samarcandin acetate], the IC50 [1] is reported as 78.7 ± 1.65 µM, the cytotoxicity in words [2] is reported as “little or no cytotoxicity” and the IC50 [3] is reported as > 200 µM. For the same compound, the IC50 [4] was 70.29 ± 0.65 µM and the IC50 [5] was > 200 µM.

For `CC1(O)CCC2C(C)(C)C(O)CCC2(C)C1COc1ccc2ccc(=O)oc2c1` (centres unmarked) [Samarcandin (14), samarcandin], the IC50 [1] was 143 ± 1.67 µM, the cytotoxicity in words [2] was “little or no cytotoxicity” and the IC50 [3] was 83.27 ± 0.39 µM. It also gave an IC50 [4] of 170 ± 3.62 µM and an IC50 [5] of 169 ± 2.68 µM.

`CC1(C)C(=O)CC[C@]2(C)[C@@H]1CC[C@](C)(O)[C@H]2COc1ccc2ccc(=O)oc2c1` [Samarcandone (13), samarcandone] was tested, and the IC50 [1] was > 200 µM, the cytotoxicity in words [2] was “little or no cytotoxicity” and the IC50 [3] was > 200 µM. The IC50 [4] was 125 ± 2.13 µM and the IC50 [5] was 190 ± 5.2 µM.

With `CC1(C)[C@H](O)CC[C@]2(C)[C@@H]1CC[C@@](C)(O)[C@@H]2COc1ccc2ccc(=O)oc2c1` [Ferukrin (9), ferukrin] the IC50 [1] was > 200 µM, the cytotoxicity in words [2] was “little or no cytotoxicity” and the IC50 [3] was 81.7 ± 1.96 µM. The IC50 [4] was > 200 µM and the IC50 [5] was > 200 µM.

With `C=C1CC[C@@H]2C(C)(C)C(=O)CC[C@@]2(C)[C@@H]1COc1ccc2ccc(=O)oc2c1` [Badrakemone (4), badrakemone] the IC50 [1] was > 200 µM, the cytotoxicity in words [2] was “little or no cytotoxicity” and the IC50 [3] was > 200 µM. The IC50 [4] was > 200 µM and the IC50 [5] was > 200 µM.

`CC1=CC[C@@H]2C(C)(C)[C@@H](O)CC[C@@]2(C)[C@@H]1COc1ccc2ccc(=O)oc2c1` [Conferol (2), conferol] was tested, and the “selectivity index K-562” value ([1]; HUVEC versus K-562) was 1.73, the IC50 [1] was 35.2 ± 0.89 µM and the cytotoxicity in words [2] was “moderate or strong cytotoxicity”. The “selectivity index MCF-7” value ([3]; HUVEC versus MCF-7) was 3.82, the IC50 [3] was 16 ± 0.46 µM and the “selectivity index COLO 205” value ([4]; HUVEC versus COLO 205) was 5.45. The IC50 [4] was 11.2 ± 0.68 µM and the IC50 [5] was 61.03 ± 0.29 µM.

For `C=C1CC[C@@H]2C(C)(C)[C@@H](O)CC[C@@]2(C)[C@H]1COc1ccc2ccc(=O)oc2c1` [Gummosin (8), gummosin], the IC50 [1] was 95.5 ± 4.87 µM, the cytotoxicity in words [2] was “little or no cytotoxicity” and the IC50 [3] was > 200 µM. For the same compound, the IC50 [4] was > 200 µM and the IC50 [5] was 174.8 ± 0.28 µM.

In the case of `CN1C[C@H](c2cccc(C#N)c2)Oc2ccccc2C1=O` [Compound 6, reference compound], the cytotoxicity in words [2] is reported as “little or no cytotoxicity”.

For `COc1cccc2c1C(=O)c1c(O)c3c(c(O)c1C2=O)C[C@@](O)(C(=O)CO)C[C@@H]3O[C@H]1C[C@H](N)[C@H](O)[C@H](C)O1` [Doxorubicin, reference compound], the IC50 [1] was 0.33 ± 0.02 µM, the IC50 [3] was 2.83 ± 0.25 µM and the IC50 [4] was 0.08 µM. For the same compound, the IC50 [5] was 0.2 ± 0.02 µM.
